Measurements published in the supplement of paper PMC10307832.

Legend:
Test in all cases: relative viability (nuclei count vs DMSO), 5 days (fraction); higher = more cells survive
[1] = compound: C#Cc1cccc(Nc2ncnc3cc(OCCOC)c(OCCOC)cc23)c1 [Erlotinib] + Cc1cc(Nc2cc(N3CCN(C)CC3)nc(Sc3ccc(NC(=O)C4CC4)cc3)n2)n[nH]1 [Tozasertib] (partner 0.1 µM)
Summary of the method: (§1)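 Relative viability was taken as the ratio of nuclei in treated wells to nuclei in vehicle wells. Lung cancer cell lines in 1536-well plates received compounds by pin tool one day after seeding, either one drug alone or a fixed anchor-drug dose plus five library-drug doses (not always all listed) in √10 steps. Nuclei were counted on 4× images after 5 days of treatment, and values are medians of duplicate plates.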

[2] = compound: O=C(Nc1c[nH]nc1-c1nc2ccc(CN3CCOCC3)cc2[nH]1)NC1CC1 [AT9283] + CC1(C)CCC(c2ccc(Cl)cc2)=C(CN2CCN(c3ccc(C(=O)NS(=O)(=O)c4ccc(N[C@H](CCN5CCOCC5)CSc5ccccc5)c(S(=O)(=O)C(F)(F)F)c4)cc3)CC2)C1 [Navitoclax] (partner 0.5 µM)
Summary of the method: as §1

[3] = compound: C#Cc1cccc(Nc2ncnc3cc(OCCOC)c(OCCOC)cc23)c1 [Erlotinib] + O=C(CCCCCCC(=O)Nc1ccccc1)NO [Vorinostat] (partner 1 µM)
Summary of the method: as §1

[4] = compound: C#Cc1cccc(Nc2ncnc3cc(OCCOC)c(OCCOC)cc23)c1 [Erlotinib] + CC(=O)Nc1cccc(-n2c(=O)n(C3CC3)c(=O)c3c(Nc4ccc(I)cc4F)n(C)c(=O)c(C)c32)c1 [Trametinib] (partner 0.02 µM)
Summary of the method: as §1

[5] = compound: C#Cc1cccc(Nc2ncnc3cc(OCCOC)c(OCCOC)cc23)c1 [Erlotinib] + CS(=O)(=O)CCNCc1ccc(-c2ccc3ncnc(Nc4ccc(OCc5cccc(F)c5)c(Cl)c4)c3c2)o1 [Lapatinib] (partner 2 µM)
Summary of the method: as §1

Cell Line | relative viability ([1]; first compound 0.02 µM) | relative viability ([1]; first compound 0.2 µM) | relative viability ([1]; first compound 0.6325 µM) | relative viability ([1]; first compound 2 µM) | relative viability ([2]; first compound 0.003 µM) | relative viability ([2]; first compound 0.03 µM) | relative viability ([2]; first compound 0.09487 µM) | relative viability ([2]; first compound 0.3 µM) | relative viability ([3]; first compound 0.02 µM) | relative viability ([3]; first compound 0.2 µM) | relative viability ([3]; first compound 0.6325 µM) | relative viability ([3]; first compound 2 µM) | relative viability ([4]; first compound 0.02 µM) | relative viability ([4]; first compound 0.2 µM) | relative viability ([4]; first compound 0.6325 µM) | relative viability ([4]; first compound 2 µM) | relative viability ([5]; first compound 0.02 µM) | relative viability ([5]; first compound 0.2 µM) | relative viability ([5]; first compound 0.6325 µM) | relative viability ([5]; first compound 2 µM)
NCI-H460 | 0.44 | 0.191 | 0.109 | 0.0585 | 1.23 | 0.987 | 0.0587 | 0.0315 | 0.832 | 0.734 | 0.969 | 0.601 | 0.104 | 0.129 | 0.131 | 0.0721 | 0.918 | 1.1 | 0.999 | 0.959
NCI-H520 | 0.427 | 0.471 | 0.466 | 0.432 | 1.17 | 0.34 | 0.236 | 0.23 | 0.718 | 0.693 | 0.83 | 0.71 | 0.689 | 0.666 | 0.744 | 0.687 | 0.825 | 0.759 | 0.913 | –
NCI-H596 | 0.805 | 0.848 | 0.69 | 0.722 | 1.05 | 0.839 | 0.689 | 0.481 | 0.683 | 0.636 | 0.606 | 0.583 | 0.745 | 0.75 | 0.886 | 0.751 | – | 1 | 0.998 | 1.01
NCI-H647 | 0.257 | 0.179 | 0.28 | 0.136 | 1.03 | 0.542 | 0.125 | 0.0857 | 0.735 | 0.485 | 0.556 | 0.565 | 0.653 | 0.367 | 0.556 | 0.422 | 1.24 | 1.11 | 1.09 | 0.942
NCI-H727 | 0.616 | 0.51 | 0.493 | 0.424 | 0.532 | 0.235 | 0.154 | 0.11 | 1.29 | 1.24 | 1.03 | 1.01 | 0.392 | 0.387 | 0.351 | 0.379 | 0.821 | 0.873 | 0.929 | 0.766
NCI-H838 | 0.293 | 0.273 | 0.283 | 0.25 | 1.32 | 0.333 | 0.239 | 0.213 | 0.821 | 0.694 | 0.703 | 0.684 | 0.587 | 0.431 | 0.586 | 0.509 | 1.21 | 0.759 | 1.26 | 0.853
NCI-H1355 | 0.567 | 0.538 | 0.4 | 0.266 | 1.07 | 0.806 | 0.46 | 0.158 | 0.668 | 0.633 | 0.602 | 0.521 | 0.424 | 0.332 | 0.326 | 0.302 | 1.03 | 0.98 | 1.06 | 0.998
NCI-H1395 | 0.837 | 0.772 | 0.712 | 0.566 | 1.21 | 0.716 | 0.393 | 0.421 | 0.776 | 0.674 | 0.808 | 0.652 | 1.1 | 0.993 | 1.02 | 0.989 | – | 1.11 | 1.02 | 0.961
